Here are results for 4 molecules from US12365643B2, “Phenoxy carboxylic acid compounds and medical uses thereof” (QINGDAO RISING BIOTECHNOLOGY CO., LTD, priority 2018, dated 2025).

Common to all, as to format: cell-based, human
For assay [1], the system named is CPT1α. Kind of assay: CPT1α protein level by Western blotting in HepG2. The following applies: 1 μM, 24 hours, HepG2, Western blotting (FIG. 6A). The source says:
(§1) Carnitine palmitoyltransferase (CPT1α) is a rate-limiting enzyme of fatty acid oxidation. When the body or tissues are lacking in energy, CPT1α catalyzes the entry of fatty acids into mitochondria for […], and at the same time, CPT1α is also involved in the regulation of fatty acid-induced insulin resistance and inflammation. Protein kinase B/glycogen synthase kinase 3β (AKT/GSK3β) signaling pathway and insulin receptor substrate 1 (IRS-1) are key signaling pathways that regulate glucose metabolism in response to insulin signal. Therefore, by determining the effects of compounds on the CPT1α protein level and the AKT, GSK3β and IRS-1 protein phosphorylation levels, it is possible to evaluate the regulatory effects of the compounds on glycolipid metabolism.
(§2) After human liver cancer cells HepG2 were incubated with the compound of the present application or the control drug at 1 μM for 24 hours, the CPT1α protein level and the AKT, GSK3β and IRS-1 phosphorylated protein levels in the cells were determined by Western blotting; after gray-scale scanning by using Image J15.0.1, normalization was performed by using β-tubulin protein level as internal control, and the quantitative analysis results were shown in FIG. 6.
In general terms: Immunoblotting shows a protein as a band on a membrane.

Assay [2] relates to PPARγ. Kind of assay: PPARγ mRNA expression by real-time quantitative PCR in HepG2. Particulars: 1 μM, 6 hours, HepG2 (FIG. 5B). The source says: Peroxisome proliferation factor activated receptor (PPAR) is an important nuclear receptor that regulates glycolipid metabolism, including three subtypes: α, β/δ and γ. Peroxisome proliferator-activated receptor γ coactivator 1α (PGC-1α) is its auxiliary transcriptional activator. Acyl-CoA oxidase 1 (ACOX1) is the first rate-limiting enzyme for fatty acid β oxidation. Fatty acid binding protein 1 (FABP1) is highly expressed in liver, and can bind fatty acid, heme and other molecules to reduce their toxicity and damage. Up-regulating the expression level of these genes helps to improve the body's metabolism, and their agonists are an important class of anti-metabolic drugs. After the compound of the present application (1 μM) and the control drug gemfibrozil (1 μM) were incubated with human liver cancer cells HepG2 for 6 hours, real-time fluorescent quantitative PCR method was used to determine the relative expression of mRNA of related genes in the cells.
The company which synthesized the primers was Suzhou Hongxun Biotechnology Co., Ltd. Tranzol reagent (Tranzol total RNA extraction reagent, TransGen Biotech) was used to extract total RNA from tissues. 5× All-In-One RT MasterMix reverse transcription kit (Abcam, USA) and real-time quantitative PCR Master Mix (Aidlab Biotechnologies Co., Ltd) were used. Bio-Rad CFX Connect™ Real-Time PCR Detection System for qPCR was used, and 2^−ΔΔCT method was used for data analysis. The expression level of mRNA in the normal control group was set to 1, and the relative expression level of mRNA in the administration group was calculated, so as to confirm whether the active compound affected the PPAR pathway, thereby further regulating lipid metabolism.

Assay [3] concerns phosphorylated IRS-1. Kind of assay: Phosphorylated IRS-1 level by Western blotting in HepG2. The following applies: 1 μM, 24 hours, HepG2, Western blotting (FIG. 6C).
Text: as §1, §2

Assay [4] has as its system NF-κB. As to the kind of experiment: NF-κB luciferase reporter gene transcriptional activity in SW480 cells. The following applies: 50 μM, 6 hours, SW480 stably transfected (FIG. 3). The method, then:
(§3) NF-κB was the most important inflammatory signal pathway. SW480 human colon cancer cells stably transfected with a luciferase reporter gene driven by NF-κB were used to determine the effects of the compound of the present application and the control drug gemfibrozil on NF-κB transcriptional activity, which comprised the following steps. • (1) Cells stably transfected with NF-κB Luc were cultivated to exponential growth, inoculated at a culture medium concentration of 1×10^5/[…] in a 24-well plate, and cultured for 24 hours, the medium was discarded, and the test compound or gemfibrozil formulated with serum-free medium at 50 μM were added to the 24-well plate and incubation was continued for 6 hours. After washing once with 200 μL of PBS, 100 μL of reporter gene cell lysis buffer was added, the cells were lysed on ice for 10 minutes, and the cell lysate was collected by pipetting. • (2) After centrifugation was performed at 8000 rpm and 4° C. for 10 min, the supernatant was pipetted for fluorescence assay. • (3) The measurement gap time of chemiluminescence analyzer was set to 2 s and the measurement time was set to 10 s. Automatic sample injection was adopted, 50 μL of luciferase assay reagent was added to each well. The reporter gene cell lysis buffer was used as a blank control. • (4) After centrifugation, the supernatant was taken, and the BCA method was used to determine the protein concentration so as to normalize the reporter gene results.
Background: A reporter such as luciferase makes a cellular process visible.

The subject of assay [5] is antioxidant response element (ARE). Kind of assay: ARE luciferase reporter gene activity in HepG2 cells. The following applies: 50 μM, HepG2 stably transfected (FIG. 4). As for the experimental part: as §3
In this experimental example, the luciferase activity in HepG2 human liver cancer cells stably transfected with a luciferase reporter gene driven by antioxidant response element (ARE) was determined to evaluate the regulatory effects of the compound of the present application and gemfibrozil on the transcriptional activity of transcription factor Nrf2 and the cellular oxidative stress response signals, in which the operation process of the reporter gene assay was the same as that of Experimental Example 2.2.

In the case of `Cc1cc(OCCCC(C)(C)C(=O)O)c(C)cc1Br` [BJMU-2, 5-(4-bromo-2,5-dimethylphenoxy)-2,2-dimethylpentanoic acid], the CPT1α protein level entry in assay [1] is “significantly increased CPT1α protein level”. In assay [2], the “PPARγ mRNA expression” value is on record as “significantly induced PPARγ mRNA expression”. Also, the “phosphorylation level of IRS-1” value in assay [3] is recorded as “significantly increased the phosphorylation level of IRS-1”. The “activity of NF-κB reporter gene” value in assay [4] is on record as “could significantly inhibit the activity of NF-κB reporter gene”. Further, the “ARE reporter gene activity” value in assay [5] is on record as “could significantly activate the ARE reporter gene activity”.

Regarding `Cc1ccc(C)c(OCCCC(C)(C)C(=O)O)c1` [gemfibrozil, Gemfibrozil, reference compound], the “activity of NF-κB reporter gene” value in assay [4] was “could not inhibit the activity of NF-κB reporter gene”. In assay [5], the “ARE reporter gene activity” value is reported as “did not obviously activate the ARE”.

For the molecule `Cc1cc(OCCCC(C)(C)C(=O)O)c(C)cc1F` [BJMU-3, 5-(4-fluoro-2,5-dimethylphenoxy)-2,2-dimethylpentanoic acid], in assay [2], the “PPARγ mRNA expression” value is “significantly induced PPARγ mRNA expression”. For the same molecule, in assay [3], the “phosphorylation level of IRS-1” value was “significantly increased the phosphorylation level of IRS-1”. Besides, in assay [5], the “ARE reporter gene activity” value is reported as “could significantly activate the ARE reporter gene activity”.

Turning to `Cc1cc(OCCCC(C)(C)C(=O)O)c(C)cc1Cl` [BJMU-1, 5-(4-chloro-2,5-dimethylphenoxy)-2,2-dimethylpentanoic acid], the CPT1α protein level entry in assay [1] is given as “significantly increased CPT1α protein level”. Moreover, in assay [4], the “activity of NF-κB reporter gene” value is reported as “could significantly inhibit the activity of NF-κB reporter gene”. For the same molecule, in assay [5], the “ARE reporter gene activity” value is “could significantly activate the ARE reporter gene activity”.
